Source: patent US6709676B2, “Extended release oral dosage composition” (Schering Corporation, priority 1999, dated 2004)

Tested on: allergic bronchospasm and cough
Test: in vivo studies of allergic bronchospasm and cough

## Clc1ccc2c(c1)CCc1cccnc1C2=C1CCNCC1 [desloratadine, Desloratadine]
  effect on allergic bronchospasm and cough: inhibitory effect
